# From patent publication EP1816136A1, “GPR7-SELECTIVE LIGAND AND USE THEREOF” (BANYU PHARMACEUTICAL CO., LTD., priority 2004, dated 2006)
# Non-standard residues stand in square brackets, D forms with d. Residues, ends and D or L forms follow the SMILES beside them. 3Abz = Nc1cccc(C(=O)O)c1; 4Abz = Nc1ccc(C(=O)O)cc1; 2Abz = Nc1ccccc1C(=O)O; Ava = NCCCCC(=O)O
# How the values were obtained:
# GPR8 [1] = molecular target: T1, GPR8 (Homo sapiens, UniProt P48146); assay: Measurement of activation capacity on GPR8 (CRE-BLA beta-lactamase reporter assay); format: cell-based; settings: Table 1; HEK293/CRE-BLA cells expressing GPR8; forskolin 1 µM; 3 hours at 37°C; read-out: GPR8 (nM) EC 50
# T1 construct: expressed in transfected cells; host or cells: HEK293/CRE-BLA cells (AURORA), expression vector pIRES-hygro (Clontech)
# From the text: (§1) A cDNA sequence coding for human GPR7 or GPR8 [see Genomics, vol. 28, p. 84 (1995)] was amplified by the PCR method, and cloned using the expression vector pIRES-hygro (Clontech). The resulting expression vector was transfected into HEK293/CRE-BLA cells (AURORA) using the cationic lipid method [see Proceedings of the National Academy of Sciences of the United States of America, vol. 84, p. 7413 (1987)] to obtain GPR7 or GPR8 expression cells.
# (§2) In accordance with the method of Zlakarmik (see Science, 1998, vol. 279, p. 84), the activity of various synthetic peptides on GPR7 or GPR8 was measured. HEK293/CRE-BLA cells which expressed GPR7 or GPR8 (prepared in (2) of Test Example 1) were washed twice with PBS(-) buffer solution (GIBCO-BRL), and then Cell-dissociation buffer (GIBCO-BRL) was added. The system was kept at 37°C for 3 minutes in a CO2 incubator, and a culture flask was tapped to liberate the cells from the flask. After the cells were harvested by centrifugation, the cells were suspended in an Opti-MEM culture medium (GIBCO-BRL) containing 0.1 % BSA (Sigma) to count the cells and prepare a cell suspension containing 8×10^5 cells/mL. To 2 µL of a DMSO solution containing each test compound with a concentration of 50 times an end concentration, 50 µL of the 0.1% BSA-containing Opti-MEM medium incorporating forskolin (Sigma) so as to have an end concentration of 1 µM was added to form a reaction solution. To this reaction solution, 50 µL of the above cell suspension was added to initiate the reaction, and the system was incubated for 3 hours at 37°C in a CO2 incubator.
# (§3) Then, using a BLA assay kit (AURORA), a coloring matter-introduced buffer solution incorporating 12 µL of Solution A [1 mM CCF2-AM/anhydrous DMSO solution], 120 µL of Solution B [100 mg/mL Pluronic 127, 0.1% acetic acid/DMSO solution], and 2 mL of Solution C [24% (w/w) PEG-400, 18% TR40/H2O] was prepared. This coloring matter-introduced buffer solution (20 µL) was added to the above-mentioned cell reaction mixture to introduce a β-lactamase substrate (CCF2-AM) into the cells. After the system was allowed to stand for 1 hour at room temperature, the fluorescence intensities of the sample at an excitation wavelength of 409 nm, at a fluorescence wavelength of 460 nm (a β-lactamase hydrolyzate of CCF), and at 530 nm (CCF) were measured. With β-lactamase activity (fluorescence intensity at 460 nm/fluorescence intensity at 530 nm) as an indicator, the activity of each of various peptides on GPR7 or GPR8 was measured, and the 50% effective concentration (EC50) of the test compound was calculated.
# GPR7 [2] = molecular target: T2, GPR7 (Homo sapiens, UniProt P48145); assay: Binding inhibition test with [125I]-[Phe2]-hNPW(1-23), GPR7 membrane preparation
# T2 construct: expressed in transfected cells; host or cells: HEK293/CRE-BLA cells (AURORA), expression vector pIRES-hygro (Clontech)
# T2 sequence (P48145 1-328): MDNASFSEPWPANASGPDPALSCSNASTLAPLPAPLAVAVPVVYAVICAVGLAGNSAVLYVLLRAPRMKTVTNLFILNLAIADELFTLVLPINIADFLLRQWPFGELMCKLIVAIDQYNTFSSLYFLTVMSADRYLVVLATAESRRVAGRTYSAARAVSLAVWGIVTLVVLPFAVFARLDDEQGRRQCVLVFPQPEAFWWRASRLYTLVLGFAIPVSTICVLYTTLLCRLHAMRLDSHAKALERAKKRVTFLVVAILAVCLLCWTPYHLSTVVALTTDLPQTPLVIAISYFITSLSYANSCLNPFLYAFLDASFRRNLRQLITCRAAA
# Procedure: (§4) One nmol of [Phe2]-hNPW(1-23) (prepared in Synthesis Example 19) was dissolved in 5 µL of anhydrous DMSO, and the solution was mixed with 0.1M nickel chloride. Then, the mixture was mixed with 10 µL of a 0.00 1 % aqueous solution of hydrogen peroxide, 10 µL of an enzyme solution (lactoperoxidase (Sigma) adjusted to 10 µg/mL with a 0.1M HEPES buffer solution), and 37 Mbq/10 µL of Iodine-125 (Amersham), whereafter the resulting mixture was reacted for 60 minutes at room temperature. The reaction was terminated with the addition of 10 µL of 1% sodium azide, and then a radiolabeled peptide fraction was collected by a PD-10 gel filtration column (Amersham) to obtain [^125I]-[Phe2]-hNPW(1-23).
# as §1
# (§5) A membrane preparation prepared from the cells expressing GPR7 or GPR8 was incubated for 1 hour at room temperature in an assay buffer solution (25 mM Tris buffer solution, 150 mM NaCl, pH 7.4) together with a test compound and 28,000 cpm of [^125I]-[Phe2]-hNPW(1-23). Then, the system was filtered through the glass filter GF/C. After washing with 25 mM Tris buffer solution (pH 7.4), radioactivity on the glass filter was measured. Nonspecific binding was measured in the presence of 1 µM hNPW (prepared in Synthesis Example 1), and the 50% inhibition concentration (IC50 value) of the test compound against [Phe2]-hNPW(1-23) specific binding was calculated [see Molecular Pharmacology, vol. 55, 1101 (1999)].
# GPR8 [3] = molecular target: T1, GPR8; assay: Binding inhibition test with [125I]-[Phe2]-hNPW(1-23), GPR8 membrane preparation
# Procedure: as §4, §1, §5
# GPR7 [4] = molecular target: T2, GPR7; assay: Measurement of activation capacity on GPR7 (CRE-BLA beta-lactamase reporter assay); format: cell-based; settings: Table 1; HEK293/CRE-BLA cells expressing GPR7; forskolin 1 µM; 3 hours at 37°C
# From the text: as §1, §2, §3
# [5] = Table 1, membrane preparation of HEK293/CRE-BLA cells expressing GPR7, 1 hour at room temperature
# [6] = Table 1, membrane preparation of HEK293/CRE-BLA cells expressing GPR8, 1 hour at room temperature
# [7] = Table 2, membrane preparation of cells expressing GPR7
# [8] = Table 2, membrane preparation of cells expressing GPR8
# T1 sequence (P48146 whole entry): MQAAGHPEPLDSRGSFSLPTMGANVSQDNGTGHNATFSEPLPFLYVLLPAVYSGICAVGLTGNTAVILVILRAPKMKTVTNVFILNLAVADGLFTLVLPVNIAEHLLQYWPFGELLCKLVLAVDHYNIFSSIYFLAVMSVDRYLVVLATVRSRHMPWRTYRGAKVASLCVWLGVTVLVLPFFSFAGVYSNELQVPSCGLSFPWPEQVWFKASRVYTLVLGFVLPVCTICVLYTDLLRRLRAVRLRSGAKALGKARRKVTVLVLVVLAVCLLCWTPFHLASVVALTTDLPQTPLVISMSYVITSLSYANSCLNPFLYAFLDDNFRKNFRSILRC
Structure (SMILES),EC50 (GPR8 [1]) [nM],IC50 (GPR7 [2]; [5]) [nM],IC50 (GPR8 [3]; [6]) [nM],EC50 (GPR7 [4]) [nM],IC50 (GPR7 [2]; [7]) [nM],IC50 (GPR8 [3]; [8]) [nM]
CC(C)C[C@H](NC(=O)CNC(=O)[C@H](CO)NC(=O)[C@H](CC(C)C)NC(=O)[C@H](CC(C)C)NC(=O)CNC(=O)[C@H](C)NC(=O)[C@H](C)NC(=O)[C@H](CCCNC(=N)N)NC(=O)CNC(=O)[C@@H](NC(=O)[C@H](CO)NC(=O)[C@H](Cc1ccc(O)cc1)NC(=O)[C@H](CO)NC(=O)[C@H](CO)NC(=O)[C@H](Cc1cnc[nH]1)NC(=O)CNC(=O)[C@H](C)NC(=O)[C@H](C)NC(=O)[C@@H]1CCCN1C(=O)[C@H](CCCCN)NC(=O)[C@H](Cc1ccc(O)cc1)NC(=O)[C@@H](N)Cc1c[nH]c2ccccc12)C(C)C)C(N)=O [compound 4],0.86,0.23,24,0.24,–,–
CC(C)C[C@H](NC(=O)CNC(=O)[C@H](CO)NC(=O)[C@H](CC(C)C)NC(=O)[C@H](CC(C)C)NC(=O)CNC(=O)[C@H](C)NC(=O)[C@H](C)NC(=O)[C@H](CCCNC(=N)N)NC(=O)CNC(=O)CCCCNC(=O)CCCCNC(=O)CCCCNC(=O)CCCCNC(=O)CCCCNC(=O)[C@H](CCCCN)NC(=O)[C@H](Cc1ccc(O)cc1)NC(=O)[C@@H](N)Cc1c[nH]c2ccccc12)C(N)=O [compound 9] (H-WYK[Ava][Ava][Ava][Ava][Ava]GRAAGLLSGL-NH2),–,> 100,2600,–,–,–
CC(C)C[C@H](NC(=O)CNC(=O)[C@H](CO)NC(=O)[C@H](CC(C)C)NC(=O)[C@H](CC(C)C)NC(=O)CNC(=O)[C@H](C)NC(=O)[C@H](C)NC(=O)[C@H](CCCNC(=N)N)NC(=O)CNC(=O)c1ccccc1NC(=O)CCCCNC(=O)CCCCNC(=O)[C@H](CCCCN)NC(=O)[C@H](Cc1ccc(O)cc1)NC(=O)[C@@H](N)Cc1c[nH]c2ccccc12)C(N)=O [compound 10] (H-WYK[Ava][Ava][2Abz]GRAAGLLSGL-NH2),–,–,–,–,4.7,8000
CC(C)C[C@H](NC(=O)CNC(=O)[C@H](CO)NC(=O)[C@H](CC(C)C)NC(=O)[C@H](CC(C)C)NC(=O)CNC(=O)[C@H](C)NC(=O)[C@H](C)NC(=O)[C@H](CCCNC(=N)N)NC(=O)CNC(=O)c1cccc(NC(=O)CCCCNC(=O)CCCCNC(=O)[C@H](CCCCN)NC(=O)[C@H](Cc2ccc(O)cc2)NC(=O)[C@@H](N)Cc2c[nH]c3ccccc23)c1)C(N)=O [compound 11] (H-WYK[Ava][Ava][3Abz]GRAAGLLSGL-NH2),–,–,–,–,0.37,13
CC(C)C[C@H](NC(=O)CNC(=O)[C@H](CO)NC(=O)[C@H](CC(C)C)NC(=O)[C@H](CC(C)C)NC(=O)CNC(=O)[C@H](C)NC(=O)[C@H](C)NC(=O)[C@H](CCCNC(=N)N)NC(=O)CNC(=O)c1ccc(NC(=O)CCCCNC(=O)CCCCNC(=O)[C@H](CCCCN)NC(=O)[C@H](Cc2ccc(O)cc2)NC(=O)[C@@H](N)Cc2c[nH]c3ccccc23)cc1)C(N)=O [compound 12] (H-WYK[Ava][Ava][4Abz]GRAAGLLSGL-NH2),–,–,–,–,0.35,5.1
CC(C)C[C@H](NC(=O)CNC(=O)[C@H](CO)NC(=O)[C@H](CC(C)C)NC(=O)[C@H](CC(C)C)NC(=O)CNC(=O)[C@H](C)NC(=O)[C@H](C)NC(=O)[C@H](CCCNC(=N)N)NC(=O)CNC(=O)CCCCNC(=O)c1ccccc1NC(=O)CCCCNC(=O)[C@H](CCCCN)NC(=O)[C@H](Cc1ccc(O)cc1)NC(=O)[C@@H](N)Cc1c[nH]c2ccccc12)C(N)=O [compound 13] (H-WYK[Ava][2Abz][Ava]GRAAGLLSGL-NH2),–,–,–,–,0.56,39
CC(C)C[C@H](NC(=O)CNC(=O)[C@H](CO)NC(=O)[C@H](CC(C)C)NC(=O)[C@H](CC(C)C)NC(=O)CNC(=O)[C@H](C)NC(=O)[C@H](C)NC(=O)[C@H](CCCNC(=N)N)NC(=O)CNC(=O)CCCCNC(=O)c1cccc(NC(=O)CCCCNC(=O)[C@H](CCCCN)NC(=O)[C@H](Cc2ccc(O)cc2)NC(=O)[C@@H](N)Cc2c[nH]c3ccccc23)c1)C(N)=O [compound 14] (H-WYK[Ava][3Abz][Ava]GRAAGLLSGL-NH2),–,–,–,–,0.19,16
CC(C)C[C@H](NC(=O)CNC(=O)[C@H](CO)NC(=O)[C@H](CC(C)C)NC(=O)[C@H](CC(C)C)NC(=O)CNC(=O)[C@H](C)NC(=O)[C@H](C)NC(=O)[C@H](CCCNC(=N)N)NC(=O)CNC(=O)CCCCNC(=O)c1ccc(NC(=O)CCCCNC(=O)[C@H](CCCCN)NC(=O)[C@H](Cc2ccc(O)cc2)NC(=O)[C@@H](N)Cc2c[nH]c3ccccc23)cc1)C(N)=O [compound 15] (H-WYK[Ava][4Abz][Ava]GRAAGLLSGL-NH2),–,–,–,–,0.4,34
CC(C)C[C@H](NC(=O)CNC(=O)[C@H](CO)NC(=O)[C@H](CC(C)C)NC(=O)[C@H](CC(C)C)NC(=O)CNC(=O)[C@H](C)NC(=O)[C@H](C)NC(=O)[C@H](CCCNC(=N)N)NC(=O)CNC(=O)CCCCNC(=O)CCCCNC(=O)c1ccccc1NC(=O)[C@H](CCCCN)NC(=O)[C@H](Cc1ccc(O)cc1)NC(=O)[C@@H](N)Cc1c[nH]c2ccccc12)C(N)=O [compound 16] (H-WYK[2Abz][Ava][Ava]GRAAGLLSGL-NH2),–,–,–,–,1.3,160
CC(C)C[C@H](NC(=O)CNC(=O)[C@H](CO)NC(=O)[C@H](CC(C)C)NC(=O)[C@H](CC(C)C)NC(=O)CNC(=O)[C@H](C)NC(=O)[C@H](C)NC(=O)[C@H](CCCNC(=N)N)NC(=O)CNC(=O)CCCCNC(=O)CCCCNC(=O)c1cccc(NC(=O)[C@H](CCCCN)NC(=O)[C@H](Cc2ccc(O)cc2)NC(=O)[C@@H](N)Cc2c[nH]c3ccccc23)c1)C(N)=O [compound 17] (H-WYK[3Abz][Ava][Ava]GRAAGLLSGL-NH2),–,–,–,–,0.34,33
CC(C)C[C@H](NC(=O)CNC(=O)[C@H](CO)NC(=O)[C@H](CC(C)C)NC(=O)[C@H](CC(C)C)NC(=O)CNC(=O)[C@H](C)NC(=O)[C@H](C)NC(=O)[C@H](CCCNC(=N)N)NC(=O)CNC(=O)CCCCNC(=O)CCCCNC(=O)c1ccc(NC(=O)[C@H](CCCCN)NC(=O)[C@H](Cc2ccc(O)cc2)NC(=O)[C@@H](N)Cc2c[nH]c3ccccc23)cc1)C(N)=O [compound 18] (H-WYK[4Abz][Ava][Ava]GRAAGLLSGL-NH2),–,–,–,–,5.6,190
